Experiments:
[1] = target: T1, Calcium/calmodulin-dependent protein kinase type II subunit delta (Homo sapiens, UniProt Q13557); test: Inhibition of CaMK2delta
[2] = target: T1, Calcium/calmodulin-dependent protein kinase type II subunit delta; test: Inhibition of CaMK2delta using 3 weeks old stock solution of compound
[3] = target: T1, Calcium/calmodulin-dependent protein kinase type II subunit delta; test: Inhibition of CaMK2delta using freshly stock solution of compound

T1 sequence (Q13557 whole entry): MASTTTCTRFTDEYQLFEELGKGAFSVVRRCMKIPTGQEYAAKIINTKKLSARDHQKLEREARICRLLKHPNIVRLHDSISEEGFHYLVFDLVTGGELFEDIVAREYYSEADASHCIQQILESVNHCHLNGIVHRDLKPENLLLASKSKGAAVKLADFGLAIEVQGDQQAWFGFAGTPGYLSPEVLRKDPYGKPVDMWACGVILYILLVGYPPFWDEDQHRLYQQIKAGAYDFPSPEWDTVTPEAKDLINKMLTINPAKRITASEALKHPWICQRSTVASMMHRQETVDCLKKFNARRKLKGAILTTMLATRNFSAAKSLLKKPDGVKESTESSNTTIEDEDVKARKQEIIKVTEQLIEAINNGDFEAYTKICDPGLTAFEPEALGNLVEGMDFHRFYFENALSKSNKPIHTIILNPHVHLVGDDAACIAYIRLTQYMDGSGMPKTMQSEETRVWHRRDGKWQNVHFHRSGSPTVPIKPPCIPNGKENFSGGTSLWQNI

Structure (SMILES): CNCCc1cn(C2=C(c3c[nH]c4ccc(C(=O)N(C)C)cc34)C(=O)NC2=O)c2ccccc12
- IC50 [1]: 11800 nM

Structure (SMILES): NCCc1cn(C2=C(c3c[nH]c4ccc(Cl)cc34)C(=O)NC2=O)c2ccccc12
- IC50 [1]: 10 nM

Structure (SMILES): Cc1[nH]c2ccccc2c1C1=C(c2cn(CCCN)c3ccccc23)C(=O)NC1=O
- IC50 [1]: 750 nM

Structure (SMILES): CNCCc1cn(C2=C(c3c[nH]c4ccc(C(=O)NC)cc34)C(=O)NC2=O)c2ccccc12
- IC50 [1]: 280 nM

Structure (SMILES): NCCCn1cc(C2=C(c3ccccc3)C(=O)NC2=O)c2ccccc21
- IC50 [2]: 230 nM
- IC50 [3]: 350 nM

Structure (SMILES): CN(C)CCc1cn(C2=C(c3c[nH]c4ccccc34)C(=O)NC2=O)c2ccccc12
- IC50 [1]: 560 nM

Structure (SMILES): NCCCn1cc(C2=C(c3csc4ccccc34)C(=O)NC2=O)c2ccccc21
- IC50 [2]: < 39 nM
- IC50 [3]: 360 nM

Structure (SMILES): N#Cc1ccc2[nH]cc(C3=C(n4cc(CCN)c5ccccc54)C(=O)NC3=O)c2c1
- IC50 [1]: 46 nM

Structure (SMILES): CN(C)Cc1cn(C2=C(c3c[nH]c4ccccc34)C(=O)NC2=O)c2ccccc12
- IC50 [1]: 2410 nM

Structure (SMILES): NCCCn1cc(C2=C(c3c[nH]c4ccccc34)C(=O)NC2=O)c2ccccc21
- IC50 [1]: 380 nM

Structure (SMILES): CNCCc1cn(C2=C(c3c[nH]c4ccc(C(N)=O)cc34)C(=O)NC2=O)c2ccccc12
- IC50 [1]: 190 nM

Structure (SMILES): CNCCc1cn(C2=C(c3c[nH]c4ccc(C(=O)O)cc34)C(=O)NC2=O)c2ccccc12
- IC50 [1]: 380 nM

Structure (SMILES): COc1ccc2[nH]cc(C3=C(n4cc(CCN)c5ccccc54)C(=O)NC3=O)c2c1
- IC50 [1]: 170 nM

Structure (SMILES): CNCCc1cn(C2=C(c3c[nH]c4ccc(C(=O)OC)cc34)C(=O)NC2=O)c2ccccc12
- IC50 [1]: 21 nM

Structure (SMILES): CNCCc1cn(C2=C(c3c[nH]c4ccccc34)C(=O)NC2=O)c2ccccc12
- IC50 [1]: 150 nM

Structure (SMILES): CNCCc1cn(C2=C(c3c[nH]c4ccc(Cl)cc34)C(=O)NC2=O)c2ccccc12
- IC50 [1]: 13 nM

Structure (SMILES): NCCc1cn(C2=C(c3c[nH]c4ccc(C(F)(F)F)cc34)C(=O)NC2=O)c2ccccc12
- IC50 [1]: 32 nM

Structure (SMILES): NCCc1cn(C2=C(c3c[nH]c4ccc(F)cc34)C(=O)NC2=O)c2ccccc12
- IC50 [1]: 38 nM

Structure (SMILES): CCc1ccc2[nH]cc(C3=C(n4cc(CCNC)c5ccccc54)C(=O)NC3=O)c2c1
- IC50 [1]: 110 nM

Structure (SMILES): NCCc1cn(C2=C(c3c[nH]c4ccccc34)C(=O)NC2=O)c2ccccc12
- IC50 [1]: 110 nM

Structure (SMILES): NCCCn1cc(C2=C(n3ccc4ccccc43)C(=O)NC2=O)c2ccccc21
- IC50 [1]: 4560 nM
